Consider 17 compounds from publication PMC12305662, “Fragment-Based Development of Small Molecule Inhibitors Targeting Mycobacterium tuberculosis Cholesterol Metabolism” (Journal of Medicinal Chemistry, 2025).

SMILES strings stand for the structures.

One series concerns the target CYP125 (Mycobacterium tuberculosis, UniProt P9WPP1). Format: binding. To be noted: fragment 1 mM, P450 4-6 µM; Soret shift relative to DMSO (393 nm).
A further series concerns the target CYP142 (Mycobacterium tuberculosis, UniProt P9WPL5). To be noted: fragment 1 mM, P450 4-6 µM; relative to DMSO (418.5 nm).
In another series the target is CYP124 (Mycobacterium tuberculosis, UniProt P9WPP3). To be noted: fragment 1 mM, P450 4-6 µM; relative to DMSO (419 nm).
In another series the target is CYP121 (Mycobacterium tuberculosis, UniProt P9WPP7). To be noted: fragment 1 mM, P450 4-6 µM; relative to DMSO (417 nm).
The next series concerns the target CYP126 (Mycobacterium tuberculosis, UniProt P9WPN9). To be noted: fragment 1 mM, P450 4-6 µM; relative to DMSO (418 nm).
Another series addresses CYP143 (Mycobacterium tuberculosis, UniProt P9WPL3). To be noted: fragment 1 mM, P450 4-6 µM; relative to DMSO (416 nm).
The target of a further series is CYP144 (Mycobacterium tuberculosis, UniProt P9WPL1). To be noted: fragment 1 mM, P450 4-6 µM; relative to DMSO (421 nm).
CYP144, sequence (P9WPL1 whole entry, the tested form may be a part): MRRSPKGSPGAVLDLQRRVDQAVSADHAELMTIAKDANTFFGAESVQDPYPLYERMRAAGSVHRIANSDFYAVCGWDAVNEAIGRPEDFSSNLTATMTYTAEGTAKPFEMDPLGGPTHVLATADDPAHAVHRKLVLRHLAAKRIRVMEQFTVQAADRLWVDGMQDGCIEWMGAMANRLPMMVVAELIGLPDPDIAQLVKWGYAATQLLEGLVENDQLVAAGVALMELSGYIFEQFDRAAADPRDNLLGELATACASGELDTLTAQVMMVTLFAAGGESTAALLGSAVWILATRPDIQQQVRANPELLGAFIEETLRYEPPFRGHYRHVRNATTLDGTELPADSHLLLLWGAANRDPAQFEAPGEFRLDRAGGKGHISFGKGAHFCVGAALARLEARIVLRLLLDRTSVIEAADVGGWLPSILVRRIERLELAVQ

CYP125, sequence (P9WPP1 whole entry, the tested form may be a part): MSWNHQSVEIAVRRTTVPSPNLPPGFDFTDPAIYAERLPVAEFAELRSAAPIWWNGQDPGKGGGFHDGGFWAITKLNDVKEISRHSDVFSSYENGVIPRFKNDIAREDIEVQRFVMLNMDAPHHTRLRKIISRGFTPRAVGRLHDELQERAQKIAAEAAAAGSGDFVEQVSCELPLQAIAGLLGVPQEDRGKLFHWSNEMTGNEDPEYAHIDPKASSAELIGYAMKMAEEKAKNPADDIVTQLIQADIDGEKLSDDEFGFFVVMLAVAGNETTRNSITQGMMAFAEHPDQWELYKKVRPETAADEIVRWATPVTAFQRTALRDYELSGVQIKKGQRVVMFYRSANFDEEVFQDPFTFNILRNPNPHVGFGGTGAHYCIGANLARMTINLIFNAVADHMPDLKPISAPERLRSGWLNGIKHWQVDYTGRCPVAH
CYP121, sequence (P9WPP7 whole entry, the tested form may be a part): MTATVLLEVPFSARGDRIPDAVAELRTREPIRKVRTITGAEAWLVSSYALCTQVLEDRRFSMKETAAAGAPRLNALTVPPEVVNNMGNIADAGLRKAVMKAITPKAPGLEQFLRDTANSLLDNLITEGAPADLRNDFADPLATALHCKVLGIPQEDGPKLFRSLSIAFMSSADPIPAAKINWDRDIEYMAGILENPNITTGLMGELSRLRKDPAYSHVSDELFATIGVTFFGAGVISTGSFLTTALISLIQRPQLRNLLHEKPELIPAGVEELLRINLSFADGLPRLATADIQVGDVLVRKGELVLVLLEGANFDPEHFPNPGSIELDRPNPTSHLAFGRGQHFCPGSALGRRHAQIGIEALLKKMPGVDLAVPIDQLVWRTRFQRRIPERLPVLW
CYP124, sequence (P9WPP3 whole entry, the tested form may be a part): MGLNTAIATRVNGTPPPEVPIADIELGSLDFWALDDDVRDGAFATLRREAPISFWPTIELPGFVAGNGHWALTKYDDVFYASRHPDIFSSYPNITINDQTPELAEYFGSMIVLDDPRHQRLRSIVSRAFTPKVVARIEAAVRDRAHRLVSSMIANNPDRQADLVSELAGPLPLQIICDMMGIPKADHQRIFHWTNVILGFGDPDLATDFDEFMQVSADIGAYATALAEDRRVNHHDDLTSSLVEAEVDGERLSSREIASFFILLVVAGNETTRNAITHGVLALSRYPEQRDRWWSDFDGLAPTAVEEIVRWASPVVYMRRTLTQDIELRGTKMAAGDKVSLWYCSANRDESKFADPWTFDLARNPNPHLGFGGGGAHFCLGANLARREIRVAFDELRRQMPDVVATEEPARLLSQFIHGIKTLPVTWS
CYP126, sequence (P9WPN9 whole entry, the tested form may be a part): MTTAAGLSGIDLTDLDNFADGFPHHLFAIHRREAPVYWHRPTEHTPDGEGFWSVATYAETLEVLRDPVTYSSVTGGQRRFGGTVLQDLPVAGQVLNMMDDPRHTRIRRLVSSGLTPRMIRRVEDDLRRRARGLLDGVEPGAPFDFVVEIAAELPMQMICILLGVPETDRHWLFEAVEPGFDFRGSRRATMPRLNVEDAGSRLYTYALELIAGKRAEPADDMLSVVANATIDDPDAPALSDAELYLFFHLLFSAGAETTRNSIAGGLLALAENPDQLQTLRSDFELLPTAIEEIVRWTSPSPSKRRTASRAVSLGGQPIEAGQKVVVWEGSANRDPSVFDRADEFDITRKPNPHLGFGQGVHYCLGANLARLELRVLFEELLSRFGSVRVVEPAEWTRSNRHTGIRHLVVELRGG
CYP143, sequence (P9WPL3 whole entry, the tested form may be a part): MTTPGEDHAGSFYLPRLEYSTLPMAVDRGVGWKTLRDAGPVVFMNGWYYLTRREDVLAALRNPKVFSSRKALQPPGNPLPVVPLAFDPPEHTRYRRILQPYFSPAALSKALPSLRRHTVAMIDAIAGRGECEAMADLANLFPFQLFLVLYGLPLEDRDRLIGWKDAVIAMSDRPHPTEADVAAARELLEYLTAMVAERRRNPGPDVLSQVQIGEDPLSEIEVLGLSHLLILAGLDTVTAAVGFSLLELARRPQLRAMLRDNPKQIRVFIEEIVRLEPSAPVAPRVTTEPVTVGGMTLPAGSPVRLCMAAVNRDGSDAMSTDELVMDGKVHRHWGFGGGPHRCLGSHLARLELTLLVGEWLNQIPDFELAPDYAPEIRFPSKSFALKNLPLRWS
CYP142, sequence (P9WPL5 whole entry, the tested form may be a part): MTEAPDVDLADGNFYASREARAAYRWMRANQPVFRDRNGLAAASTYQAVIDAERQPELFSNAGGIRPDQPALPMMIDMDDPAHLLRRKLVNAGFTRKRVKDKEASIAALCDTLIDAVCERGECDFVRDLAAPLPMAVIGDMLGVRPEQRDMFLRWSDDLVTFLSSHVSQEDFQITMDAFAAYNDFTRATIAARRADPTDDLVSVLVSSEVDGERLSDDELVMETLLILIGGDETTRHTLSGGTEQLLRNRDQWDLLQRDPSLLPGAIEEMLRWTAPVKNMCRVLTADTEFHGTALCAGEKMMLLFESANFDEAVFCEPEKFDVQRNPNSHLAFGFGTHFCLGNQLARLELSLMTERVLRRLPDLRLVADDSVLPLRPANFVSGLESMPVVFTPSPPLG

Regarding `c1ccc(N2CCOCC2)nc1` [compound 63], the “Δλmax (nm) CYP125, fragment screen” value at CYP125 was 0 nm. The “Δλmax (nm) CYP142, fragment screen” value at CYP142 stood at 0 nm. For the same compound, on CYP124, the “Δλmax (nm) CYP124, fragment screen” value turned out to be 0 nm. The “Δλmax (nm) CYP121, fragment screen” value at CYP121 amounted to 0 nm. Besides, the “Δλmax (nm) CYP126, fragment screen” value on CYP126 was 0 nm. Moreover, on CYP143, the “Δλmax (nm) CYP143, fragment screen” value was determined as 1 nm. In addition, the “Δλmax (nm) CYP144, fragment screen” value on CYP144 came to 0 nm.
With `N#Cc1ncccc1F` [compound 72], the “Δλmax (nm) CYP125, fragment screen” value on CYP125 stood at 0 nm. For the same compound, the “Δλmax (nm) CYP142, fragment screen” value at CYP142 stood at 0 nm. Further, the “Δλmax (nm) CYP124, fragment screen” value at CYP124 came to 0 nm. Moreover, the “Δλmax (nm) CYP121, fragment screen” value on CYP121 is listed as 0 nm. In addition, on CYP126, the “Δλmax (nm) CYP126, fragment screen” value was determined as 0 nm. For the same compound, the “Δλmax (nm) CYP143, fragment screen” value on CYP143 is recorded as 0 nm. Moreover, the “Δλmax (nm) CYP144, fragment screen” value on CYP144 worked out at 0 nm.
Regarding `Cn1nc(C(=O)O)cc1-c1ccccc1` [compound 70], the “Δλmax (nm) CYP125, fragment screen” value on CYP125 amounted to 0 nm. Moreover, the “Δλmax (nm) CYP142, fragment screen” value on CYP142 is on record as 0 nm. Moreover, at CYP124, the “Δλmax (nm) CYP124, fragment screen” value came to 2 nm. In addition, the “Δλmax (nm) CYP121, fragment screen” value at CYP121 is listed as 0 nm. In addition, the “Δλmax (nm) CYP126, fragment screen” value on CYP126 came to 0 nm. The “Δλmax (nm) CYP143, fragment screen” value on CYP143 is given as 0.5 nm. Also, the “Δλmax (nm) CYP144, fragment screen” value on CYP144 was found to be 0 nm.
On to `Cc1[nH]ncc1-c1ccccc1` [compound 14], for which the “Δλmax (nm) CYP125, fragment screen” value at CYP125 is -2 nm. Further, the “Δλmax (nm) CYP142, fragment screen” value on CYP142 was determined as 1.5 nm. The “Δλmax (nm) CYP124, fragment screen” value on CYP124 is 3 nm. Further, the “Δλmax (nm) CYP121, fragment screen” value at CYP121 worked out at 0 nm. For the same compound, the “Δλmax (nm) CYP126, fragment screen” value at CYP126 is listed as 0 nm. Besides, the “Δλmax (nm) CYP143, fragment screen” value on CYP143 is 0 nm. The “Δλmax (nm) CYP144, fragment screen” value on CYP144 is recorded as 0 nm.
In the case of `CC(C)c1cc(C(=O)O)[nH]n1` [compound 46], the “Δλmax (nm) CYP125, fragment screen” value on CYP125 is 0 nm. The “Δλmax (nm) CYP142, fragment screen” value on CYP142 is on record as 0 nm. Moreover, at CYP124, the “Δλmax (nm) CYP124, fragment screen” value is reported as 0 nm. In addition, the “Δλmax (nm) CYP121, fragment screen” value at CYP121 was found to be 0 nm. For the same compound, the “Δλmax (nm) CYP126, fragment screen” value at CYP126 was 0 nm. The “Δλmax (nm) CYP143, fragment screen” value on CYP143 is -0.5 nm. The “Δλmax (nm) CYP144, fragment screen” value on CYP144 was 0 nm.
For the compound `Oc1ccccn1` [compound 44], the “Δλmax (nm) CYP125, fragment screen” value on CYP125 was 0 nm. Besides, at CYP142, the “Δλmax (nm) CYP142, fragment screen” value came to 0 nm. The “Δλmax (nm) CYP124, fragment screen” value on CYP124 came out at 0 nm. On CYP121, the “Δλmax (nm) CYP121, fragment screen” value was 0 nm. The “Δλmax (nm) CYP126, fragment screen” value at CYP126 is reported as 0 nm. The “Δλmax (nm) CYP143, fragment screen” value on CYP143 is -0.5 nm. Moreover, the “Δλmax (nm) CYP144, fragment screen” value on CYP144 is 0 nm.
Consider `Cc1ccc(=O)[nH]n1` [compound 7], for which the “Δλmax (nm) CYP125, fragment screen” value at CYP125 worked out at 0 nm. Also, the “Δλmax (nm) CYP142, fragment screen” value at CYP142 amounted to 0 nm. Moreover, the “Δλmax (nm) CYP124, fragment screen” value on CYP124 is given as 0 nm. Further, at CYP121, the “Δλmax (nm) CYP121, fragment screen” value is given as 0 nm. Further, the “Δλmax (nm) CYP126, fragment screen” value at CYP126 is given as 0 nm. Further, the “Δλmax (nm) CYP143, fragment screen” value on CYP143 came to 0 nm. In addition, the “Δλmax (nm) CYP144, fragment screen” value on CYP144 is listed as 0 nm.
As to `O=S(=O)(O)c1ccccn1` [compound 78], the “Δλmax (nm) CYP125, fragment screen” value at CYP125 came out at 0 nm. Further, at CYP142, the “Δλmax (nm) CYP142, fragment screen” value was determined as 0 nm. Also, the “Δλmax (nm) CYP124, fragment screen” value at CYP124 worked out at 0 nm. Also, the “Δλmax (nm) CYP121, fragment screen” value at CYP121 is on record as 0 nm. Besides, the “Δλmax (nm) CYP126, fragment screen” value at CYP126 was 0 nm. Moreover, on CYP143, the “Δλmax (nm) CYP143, fragment screen” value was found to be 1 nm. Besides, the “Δλmax (nm) CYP144, fragment screen” value on CYP144 stood at 0 nm.
As to `Nc1ccc(Br)cn1` [compound 23], the “Δλmax (nm) CYP125, fragment screen” value on CYP125 is on record as 0 nm. Further, on CYP142, the “Δλmax (nm) CYP142, fragment screen” value amounted to 0 nm. Also, the “Δλmax (nm) CYP124, fragment screen” value at CYP124 came out at 0 nm. Moreover, the “Δλmax (nm) CYP121, fragment screen” value at CYP121 is recorded as -1 nm. The “Δλmax (nm) CYP126, fragment screen” value on CYP126 is reported as 0 nm. The “Δλmax (nm) CYP143, fragment screen” value at CYP143 is given as 0.5 nm. The “Δλmax (nm) CYP144, fragment screen” value at CYP144 turned out to be 0 nm.
Consider `OCc1ccc(Br)cn1` [compound 29], for which, on CYP125, the “Δλmax (nm) CYP125, fragment screen” value worked out at 0 nm. Besides, on CYP142, the “Δλmax (nm) CYP142, fragment screen” value stood at 0 nm. Moreover, on CYP124, the “Δλmax (nm) CYP124, fragment screen” value turned out to be 0 nm. For the same compound, the “Δλmax (nm) CYP121, fragment screen” value on CYP121 was determined as 0 nm. Also, the “Δλmax (nm) CYP126, fragment screen” value on CYP126 stood at 0 nm. In addition, the “Δλmax (nm) CYP143, fragment screen” value on CYP143 was determined as 0.5 nm. The “Δλmax (nm) CYP144, fragment screen” value at CYP144 is reported as 0 nm.
Consider `OCc1nccn1Cc1ccccc1` [compound 10], for which the “Δλmax (nm) CYP125, fragment screen” value at CYP125 came out at 0 nm. At CYP142, the “Δλmax (nm) CYP142, fragment screen” value worked out at 3 nm. The “Δλmax (nm) CYP124, fragment screen” value on CYP124 amounted to 1 nm. The “Δλmax (nm) CYP121, fragment screen” value on CYP121 stood at 0 nm. Moreover, at CYP126, the “Δλmax (nm) CYP126, fragment screen” value worked out at 0 nm. For the same compound, the “Δλmax (nm) CYP143, fragment screen” value on CYP143 amounted to 1 nm. Besides, the “Δλmax (nm) CYP144, fragment screen” value at CYP144 came out at 0 nm.
As for `O=C(O)c1ccc(-c2cccnc2)cc1` [compound 53], the “Δλmax (nm) CYP125, fragment screen” value at CYP125 came to 0 nm. Further, the “Δλmax (nm) CYP142, fragment screen” value on CYP142 was 0 nm. The “Δλmax (nm) CYP124, fragment screen” value on CYP124 came to 0 nm. In addition, at CYP121, the “Δλmax (nm) CYP121, fragment screen” value came out at 0 nm. In addition, the “Δλmax (nm) CYP126, fragment screen” value at CYP126 worked out at 0 nm. The “Δλmax (nm) CYP143, fragment screen” value at CYP143 is listed as 1 nm. The “Δλmax (nm) CYP144, fragment screen” value at CYP144 was found to be 0 nm.
`Clc1ncccc1Br` [compound 57]: the “Δλmax (nm) CYP125, fragment screen” value on CYP125 came out at 0 nm. In addition, the “Δλmax (nm) CYP142, fragment screen” value on CYP142 is listed as 0 nm. At CYP124, the “Δλmax (nm) CYP124, fragment screen” value amounted to 0 nm. In addition, on CYP121, the “Δλmax (nm) CYP121, fragment screen” value is listed as -1 nm. Besides, the “Δλmax (nm) CYP126, fragment screen” value at CYP126 was 0 nm. In addition, the “Δλmax (nm) CYP143, fragment screen” value on CYP143 is recorded as 0.5 nm. Further, the “Δλmax (nm) CYP144, fragment screen” value on CYP144 was found to be 0 nm.
For `c1ccc(-c2ccn[nH]2)nc1` [compound 2], the “Δλmax (nm) CYP125, fragment screen” value at CYP125 was 0 nm. For the same compound, the “Δλmax (nm) CYP142, fragment screen” value on CYP142 is on record as 0 nm. Besides, the “Δλmax (nm) CYP124, fragment screen” value on CYP124 is listed as 0 nm. Besides, on CYP121, the “Δλmax (nm) CYP121, fragment screen” value is given as 0 nm. For the same compound, the “Δλmax (nm) CYP126, fragment screen” value at CYP126 amounted to 0 nm. Further, the “Δλmax (nm) CYP143, fragment screen” value at CYP143 is 0 nm. Moreover, on CYP144, the “Δλmax (nm) CYP144, fragment screen” value came out at 0 nm.
Take `CNCc1ccc(-c2ccncc2)cc1` [compound 52]: the “Δλmax (nm) CYP125, fragment screen” value on CYP125 was determined as 28.5 nm. Further, the “Δλmax (nm) CYP142, fragment screen” value at CYP142 is 1.5 nm. The “Δλmax (nm) CYP124, fragment screen” value on CYP124 is on record as 2 nm. The “Δλmax (nm) CYP121, fragment screen” value at CYP121 is recorded as -1 nm. Moreover, the “Δλmax (nm) CYP126, fragment screen” value at CYP126 was 0 nm. Further, the “Δλmax (nm) CYP143, fragment screen” value at CYP143 is on record as 4 nm. Further, on CYP144, the “Δλmax (nm) CYP144, fragment screen” value came to 0 nm.
In the case of `c1ccc(Cc2cccnc2)cc1` [compound 20], the “Δλmax (nm) CYP125, fragment screen” value at CYP125 was 28 nm. For the same compound, the “Δλmax (nm) CYP142, fragment screen” value on CYP142 came to 3 nm. In addition, the “Δλmax (nm) CYP124, fragment screen” value at CYP124 is listed as 1 nm. The “Δλmax (nm) CYP121, fragment screen” value at CYP121 is reported as 2 nm. The “Δλmax (nm) CYP126, fragment screen” value on CYP126 is given as 1 nm. For the same compound, at CYP143, the “Δλmax (nm) CYP143, fragment screen” value was determined as 2 nm. Further, the “Δλmax (nm) CYP144, fragment screen” value at CYP144 was 0 nm.
As to `Cc1cc(N)n(-c2ccccc2)n1` [compound 6], the “Δλmax (nm) CYP125, fragment screen” value at CYP125 was determined as 0 nm. For the same compound, the “Δλmax (nm) CYP142, fragment screen” value at CYP142 was 0 nm. Also, the “Δλmax (nm) CYP124, fragment screen” value on CYP124 is reported as 0 nm. Also, on CYP121, the “Δλmax (nm) CYP121, fragment screen” value was determined as 0 nm. On CYP126, the “Δλmax (nm) CYP126, fragment screen” value amounted to 0 nm. In addition, at CYP143, the “Δλmax (nm) CYP143, fragment screen” value was 0.5 nm. In addition, at CYP144, the “Δλmax (nm) CYP144, fragment screen” value was found to be 0 nm.
